Laboratory results published in patent publication US20220187282A1, “CARDIOMYOCYTE PROLIFERATION” (The Council of the Queensland Institute of Medical Research, priority 2019, published 2022).
Read-outs that look alike come from different tables or passages of the source.

Experiments:
Assay type in all cases: biochemical
kinases [1] = target: kinases (Homo sapiens, UniProt O00238); details: BMPR1B (ALK6) FRET-Lantha SP; Test Conc(μM) 1
kinases [2] = target: kinases (Homo sapiens, UniProt P00519); details: ABL1 Hu Phos FRET-Z-Lyte SP; Test Conc(μM):ATP Conc(μM) 1:10
kinases [3] = target: kinases (Homo sapiens, UniProt P06239); details: LCK FRET-Z-Lyte SP; Test Conc(μM):ATP Conc(μM) 1:50
kinases [4] = target: kinases (Homo sapiens, UniProt P07947); details: YES1 FRET-Z-Lyte SP; Test Conc(μM):ATP Conc(μM) 1:25
kinases [5] = target: kinases (Homo sapiens, UniProt P09619); details: PDGFRB *Mn* FRET-Z-Lyte SP; Test Conc(μM):ATP Conc(μM) 1:100
kinases [6] = target: kinases (Homo sapiens, UniProt P11309); details: PIM1 FRET-Z-Lyte SP; Test Conc(μM):ATP Conc(μM) 1:400
kinases [7] = target: kinases (Homo sapiens, UniProt P24941)
kinases [8] = target: kinases (Homo sapiens, UniProt P27361); details: MAPK3 (ERK1) FRET-Z-Lyte SP; Test Conc(μM):ATP Conc(μM) 1:50
kinases [9] = target: kinases (Homo sapiens, UniProt P33981); details: TTK FRET-Lantha SP; Test Conc(μM) 1
kinases [10] = target: kinases (Homo sapiens, UniProt P35916); details: FLT4 (VEGFR3) *Mn* Z-Lyte SP; Test Conc(μM):ATP Conc(μM) 1:5
kinases [11] = target: kinases (Homo sapiens, UniProt P45984)
kinases [12] = target: kinases (Homo sapiens, UniProt P48426); details: PIP4K2A FRET-Adapta SP; Test Conc(μM):ATP Conc(μM) 1:10
kinases [13] = target: kinases (Homo sapiens, UniProt P48736); details: PIK3CG (p110 gamma) Adapta SP; Test Conc(μM):ATP Conc(μM) 1:25
kinases [14] = target: kinases (Homo sapiens, UniProt P49841); details: GSK3B FRET-Z-Lyte SP; Test Conc(μM):ATP Conc(μM) 1:10
kinases [15] = target: kinases (Homo sapiens, UniProt P57058); details: HUNK FRET-Lantha SP; Test Conc(μM) 1
kinases [16] = target: kinases (Homo sapiens, UniProt Q02763); details: TEK (Tie2) *Mn* FRET-Z-Lyte SP; Test Conc(μM):ATP Conc(μM) 1:10
kinases [17] = target: kinases (Homo sapiens, UniProt Q15139); details: PRKD1 (PKC mu) Z-Lyte SP; Test Conc(μM):ATP Conc(μM) 1:10
kinases [18] = target: kinases (Homo sapiens, UniProt Q16566); details: CAMK4 (CaMKIV) FRET-Z-Lyte SP; Test Conc(μM):ATP Conc(μM) 1:25
kinases [19] = target: kinases (Homo sapiens, UniProt Q8IVH8); details: MAP4K3 (GLK) FRET-Lantha SP; Test Conc(μM) 1
kinases [20] = target: kinases (Homo sapiens, UniProt Q8TDC3); details: BRSK1 (SAD1) FRET-Z-Lyte SP; Test Conc(μM):ATP Conc(μM) 1:25
kinases [21] = target: kinases (Homo sapiens, UniProt Q96BR1); details: SGKL (SGK3) FRET-Z-Lyte SP; Test Conc(μM):ATP Conc(μM) 1:10
kinases [22] = target: kinases (Homo sapiens, UniProt Q9H1R3); details: MYLK2 FRET-Z-lyte SP
kinases [23] = target: kinases (Homo sapiens, UniProt Q9H2X6); details: HIPK2 FRET-Z-Lyte SP; Test Conc(μM):ATP Conc(μM) 1:10
kinases [24] = target: kinases (Homo sapiens, UniProt Q9P1W9); details: PIM2 FRET-Z-Lyte SP; Test Conc(μM):ATP Conc(μM) 1:5
kinases [25] = target: kinases (Homo sapiens, UniProt Q9P286); details: PAK7 (KIAA1264) FRET-Z-Lyte SP; Test Conc(μM):ATP Conc(μM) 1:5
kinases [26] = target: kinases (Homo sapiens, UniProt Q9UEE5); details: STK17A (DRAK1) FRET-Lantha SP; Test Conc(μM) 1
kinases [27] = target: kinases (Homo sapiens, UniProt Q9Y6E0); details: STK24 (MST3) FRET-Z-Lyte SP; ATP Conc(μM):Test Conc(μM) 1:50
[28] = CDK2/Cyclin E1 FRET-Lantha SP, Test Conc(μM) 1
[29] = CDK2/Cyclin O FRET-Lantha SP, Test Conc(μM) 1
[30] = CDK2/cyclin A1 FRET-Lantha SP, Test Conc(μM) 1
[31] = CDK2/cyclin A FRET-Z-Lyte SP, Test Conc(μM):ATP Conc(μM) 1:25
[32] = MAPK9 (JNK2) Cascade Z-Lyte SP, Test Conc(μM):ATP Conc(μM) 1:100
[33] = MAPK9 (JNK2) FRET-Lantha SP, Test Conc(μM) 1

kinases (Homo sapiens, UniProt P45984), sequence (P45984 whole entry): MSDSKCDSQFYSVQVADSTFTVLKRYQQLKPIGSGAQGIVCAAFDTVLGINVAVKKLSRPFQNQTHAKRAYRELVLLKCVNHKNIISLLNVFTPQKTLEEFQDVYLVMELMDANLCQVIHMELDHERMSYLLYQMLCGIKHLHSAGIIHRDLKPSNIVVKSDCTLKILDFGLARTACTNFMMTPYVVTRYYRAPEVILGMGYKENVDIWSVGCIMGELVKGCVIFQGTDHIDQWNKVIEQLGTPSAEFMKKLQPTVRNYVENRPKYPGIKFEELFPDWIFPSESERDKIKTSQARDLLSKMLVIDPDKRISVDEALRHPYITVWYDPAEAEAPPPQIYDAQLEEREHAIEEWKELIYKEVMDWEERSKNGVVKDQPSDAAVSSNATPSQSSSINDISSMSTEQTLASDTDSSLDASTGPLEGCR
kinases (Homo sapiens, UniProt Q9Y6E0), sequence (Q9Y6E0 whole entry): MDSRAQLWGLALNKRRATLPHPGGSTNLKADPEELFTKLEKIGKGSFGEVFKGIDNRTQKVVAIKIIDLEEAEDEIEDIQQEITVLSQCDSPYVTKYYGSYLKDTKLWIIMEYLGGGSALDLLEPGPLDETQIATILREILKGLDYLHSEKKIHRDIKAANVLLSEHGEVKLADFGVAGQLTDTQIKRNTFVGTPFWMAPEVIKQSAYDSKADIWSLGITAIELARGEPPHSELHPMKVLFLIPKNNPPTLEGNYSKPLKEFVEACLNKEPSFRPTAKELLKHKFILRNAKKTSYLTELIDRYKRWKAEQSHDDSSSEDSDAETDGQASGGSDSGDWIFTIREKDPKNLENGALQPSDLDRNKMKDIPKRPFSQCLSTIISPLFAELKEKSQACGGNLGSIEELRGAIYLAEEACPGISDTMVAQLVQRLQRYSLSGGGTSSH
kinases (Homo sapiens, UniProt P00519), sequence (P00519 whole entry): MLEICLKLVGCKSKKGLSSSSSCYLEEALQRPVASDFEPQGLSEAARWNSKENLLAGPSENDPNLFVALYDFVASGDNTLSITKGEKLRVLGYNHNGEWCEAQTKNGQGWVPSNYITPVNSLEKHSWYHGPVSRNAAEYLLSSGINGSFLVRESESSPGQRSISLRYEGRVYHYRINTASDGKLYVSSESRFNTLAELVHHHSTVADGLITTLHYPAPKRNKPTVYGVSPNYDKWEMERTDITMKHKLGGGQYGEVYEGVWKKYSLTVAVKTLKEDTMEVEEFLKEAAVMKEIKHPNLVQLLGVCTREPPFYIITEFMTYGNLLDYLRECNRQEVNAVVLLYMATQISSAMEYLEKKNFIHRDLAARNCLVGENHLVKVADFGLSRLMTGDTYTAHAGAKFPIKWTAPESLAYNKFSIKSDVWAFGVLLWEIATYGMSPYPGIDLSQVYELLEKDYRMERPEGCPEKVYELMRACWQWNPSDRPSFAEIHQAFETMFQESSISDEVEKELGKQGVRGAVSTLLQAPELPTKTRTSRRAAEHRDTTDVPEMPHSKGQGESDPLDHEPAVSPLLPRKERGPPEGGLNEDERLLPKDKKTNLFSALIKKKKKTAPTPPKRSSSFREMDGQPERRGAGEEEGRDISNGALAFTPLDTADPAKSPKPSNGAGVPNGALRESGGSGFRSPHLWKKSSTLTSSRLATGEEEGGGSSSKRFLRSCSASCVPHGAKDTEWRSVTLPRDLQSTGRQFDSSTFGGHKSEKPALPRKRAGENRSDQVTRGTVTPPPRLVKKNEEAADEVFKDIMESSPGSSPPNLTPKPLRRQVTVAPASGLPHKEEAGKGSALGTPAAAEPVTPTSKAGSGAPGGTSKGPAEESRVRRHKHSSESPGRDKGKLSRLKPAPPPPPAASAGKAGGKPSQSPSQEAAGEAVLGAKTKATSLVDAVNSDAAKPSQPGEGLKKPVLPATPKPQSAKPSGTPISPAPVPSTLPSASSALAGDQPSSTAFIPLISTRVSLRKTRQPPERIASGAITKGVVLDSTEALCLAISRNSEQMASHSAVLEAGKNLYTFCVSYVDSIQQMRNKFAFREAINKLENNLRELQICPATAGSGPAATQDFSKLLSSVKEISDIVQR
kinases (Homo sapiens, UniProt P27361), sequence (P27361 whole entry): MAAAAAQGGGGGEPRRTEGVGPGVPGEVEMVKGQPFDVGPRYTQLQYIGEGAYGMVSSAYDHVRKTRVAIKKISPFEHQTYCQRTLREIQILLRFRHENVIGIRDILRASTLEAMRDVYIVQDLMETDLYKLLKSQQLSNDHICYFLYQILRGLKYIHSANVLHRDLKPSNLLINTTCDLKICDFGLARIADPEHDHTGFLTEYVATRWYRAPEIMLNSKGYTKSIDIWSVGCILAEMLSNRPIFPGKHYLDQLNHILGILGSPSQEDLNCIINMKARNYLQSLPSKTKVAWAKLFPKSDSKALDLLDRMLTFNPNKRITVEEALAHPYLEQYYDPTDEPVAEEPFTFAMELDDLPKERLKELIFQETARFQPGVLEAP
kinases (Homo sapiens, UniProt Q9P286), sequence (Q9P286 whole entry): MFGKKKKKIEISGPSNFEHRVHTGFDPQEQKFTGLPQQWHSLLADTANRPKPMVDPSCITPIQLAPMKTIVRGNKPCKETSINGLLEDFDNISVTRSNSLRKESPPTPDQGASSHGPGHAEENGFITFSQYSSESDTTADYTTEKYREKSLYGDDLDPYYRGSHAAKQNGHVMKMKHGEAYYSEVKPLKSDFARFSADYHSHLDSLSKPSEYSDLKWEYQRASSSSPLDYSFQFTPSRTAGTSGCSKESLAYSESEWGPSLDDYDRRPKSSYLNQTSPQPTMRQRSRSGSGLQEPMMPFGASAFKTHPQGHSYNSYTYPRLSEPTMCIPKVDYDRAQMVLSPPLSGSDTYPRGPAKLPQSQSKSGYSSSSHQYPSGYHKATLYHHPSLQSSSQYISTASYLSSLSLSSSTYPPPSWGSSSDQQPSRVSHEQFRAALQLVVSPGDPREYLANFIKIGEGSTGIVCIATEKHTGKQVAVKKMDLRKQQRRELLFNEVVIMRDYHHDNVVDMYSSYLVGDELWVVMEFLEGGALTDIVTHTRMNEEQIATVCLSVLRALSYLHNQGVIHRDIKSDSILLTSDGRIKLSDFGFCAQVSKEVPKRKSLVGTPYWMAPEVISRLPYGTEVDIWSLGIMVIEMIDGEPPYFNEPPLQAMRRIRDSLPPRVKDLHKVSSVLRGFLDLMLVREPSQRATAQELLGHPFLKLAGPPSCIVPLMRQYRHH
kinases (Homo sapiens, UniProt P06239), sequence (P06239 whole entry): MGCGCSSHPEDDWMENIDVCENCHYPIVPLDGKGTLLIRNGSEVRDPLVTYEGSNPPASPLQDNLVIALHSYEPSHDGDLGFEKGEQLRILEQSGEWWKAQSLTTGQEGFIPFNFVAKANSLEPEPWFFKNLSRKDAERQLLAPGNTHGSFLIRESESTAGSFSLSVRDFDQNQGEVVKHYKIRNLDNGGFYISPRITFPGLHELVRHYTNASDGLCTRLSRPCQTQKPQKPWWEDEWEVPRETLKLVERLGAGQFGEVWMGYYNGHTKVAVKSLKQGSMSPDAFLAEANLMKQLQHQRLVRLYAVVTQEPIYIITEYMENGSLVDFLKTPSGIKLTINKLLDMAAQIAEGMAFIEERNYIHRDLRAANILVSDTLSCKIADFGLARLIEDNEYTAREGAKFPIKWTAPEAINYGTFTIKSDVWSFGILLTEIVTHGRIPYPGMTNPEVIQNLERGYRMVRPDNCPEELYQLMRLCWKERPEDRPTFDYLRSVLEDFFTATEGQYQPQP
kinases (Homo sapiens, UniProt Q9UEE5), sequence (Q9UEE5 whole entry): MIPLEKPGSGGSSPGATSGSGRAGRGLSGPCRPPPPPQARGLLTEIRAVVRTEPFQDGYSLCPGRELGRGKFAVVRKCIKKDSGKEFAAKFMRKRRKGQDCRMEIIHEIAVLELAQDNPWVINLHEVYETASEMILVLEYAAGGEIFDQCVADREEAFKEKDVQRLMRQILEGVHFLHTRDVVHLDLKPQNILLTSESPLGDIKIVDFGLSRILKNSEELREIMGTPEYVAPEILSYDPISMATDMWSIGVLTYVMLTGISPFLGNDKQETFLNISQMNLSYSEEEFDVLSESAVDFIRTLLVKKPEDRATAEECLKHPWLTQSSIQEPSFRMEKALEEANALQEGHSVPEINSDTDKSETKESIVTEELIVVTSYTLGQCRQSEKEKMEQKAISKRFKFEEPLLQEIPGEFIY
kinases (Homo sapiens, UniProt O00238), sequence (O00238 14-502): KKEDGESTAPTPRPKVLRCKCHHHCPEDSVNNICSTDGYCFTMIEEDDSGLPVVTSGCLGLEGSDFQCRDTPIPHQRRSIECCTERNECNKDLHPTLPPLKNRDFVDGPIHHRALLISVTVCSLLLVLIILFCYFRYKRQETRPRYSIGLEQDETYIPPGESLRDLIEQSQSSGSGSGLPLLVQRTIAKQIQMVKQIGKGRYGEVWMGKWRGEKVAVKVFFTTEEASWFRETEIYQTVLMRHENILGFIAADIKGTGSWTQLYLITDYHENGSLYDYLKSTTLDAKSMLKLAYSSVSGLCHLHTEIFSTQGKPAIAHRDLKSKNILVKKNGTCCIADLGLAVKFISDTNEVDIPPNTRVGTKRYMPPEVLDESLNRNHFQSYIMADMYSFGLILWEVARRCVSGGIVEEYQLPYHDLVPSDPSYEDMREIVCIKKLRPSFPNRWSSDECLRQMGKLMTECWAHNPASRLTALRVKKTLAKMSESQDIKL
kinases (Homo sapiens, UniProt P49841), sequence (P49841 whole entry): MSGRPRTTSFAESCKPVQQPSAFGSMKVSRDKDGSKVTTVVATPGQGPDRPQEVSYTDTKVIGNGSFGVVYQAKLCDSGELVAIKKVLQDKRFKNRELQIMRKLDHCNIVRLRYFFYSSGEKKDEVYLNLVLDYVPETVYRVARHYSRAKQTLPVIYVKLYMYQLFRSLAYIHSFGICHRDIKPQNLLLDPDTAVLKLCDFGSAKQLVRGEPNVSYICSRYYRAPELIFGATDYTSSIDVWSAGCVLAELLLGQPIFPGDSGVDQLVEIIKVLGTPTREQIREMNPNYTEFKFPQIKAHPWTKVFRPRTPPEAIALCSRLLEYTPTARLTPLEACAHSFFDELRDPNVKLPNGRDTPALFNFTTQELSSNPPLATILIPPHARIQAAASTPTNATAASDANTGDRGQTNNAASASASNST

Q: With `Cc1ccc(NC(=O)c2ccnc(N3CCOCC3)c2)cc1Nc1ccnc(N2CC(C)OC(C)C2)n1` (centres unmarked) [compound 3] as the compound, how does the “Mean Inhib (%)” value (kinases [1]) read?
A: Its value is 11.9%.

Q: And the “Mean Inhib (%)” value (kinases [2])?
A: Its value is 2.8%.

Q: What about the “Mean Inhib (%)” value (kinases [3]) of the same compound?
A: The value was −4.1%.

Q: And the “Mean Inhib (%)” value (kinases [4])?
A: The value was 5.8%.

Q: What about the “Mean Inhib (%)” value (kinases [5]) of the same compound?
A: Its value is 15.5%.

Q: And the “Mean Inhib (%)” value (kinases [6])?
A: The value was 7.8%.

Q: And the “Mean Inhib (%)” value (kinases [7]; [28])?
A: Its value is 13.8%.

Q: What about the “Mean Inhib (%)” value (kinases [7]; [29]) of the same compound?
A: The value was 2.7%.

Q: And the “Mean Inhib (%)” value (kinases [7]; [30])?
A: The value was −1.8%.

Q: What about the “Mean Inhib (%)” value (kinases [7]; [31]) of the same compound?
A: The value was 6.2%.

Q: What about the “Mean Inhib (%)” value (kinases [8]) of the same compound?
A: The value was 5.1%.

Q: What about the “Mean Inhib (%)” value (kinases [9]) of the same compound?
A: Its value is 6.5%.

Q: What about the “Mean Inhib (%)” value (kinases [10]) of the same compound?
A: The value was 2.8%.

Q: And the “Mean Inhib (%)” value (kinases [11]; [32])?
A: The value was 17.9%.

Q: And the “Mean Inhib (%)” value (kinases [11]; [33])?
A: The value was 5.3%.

Q: And the “Mean Inhib (%)” value (kinases [12])?
A: Its value is 2.2%.

Q: What about the “Mean Inhib (%)” value (kinases [13]) of the same compound?
A: The value was 7.4%.

Q: What about the “Mean Inhib (%)” value (kinases [14]) of the same compound?
A: Its value is 6.5%.

Q: And the “Mean Inhib (%)” value (kinases [15])?
A: Its value is 5.7%.

Q: What about the “Mean Inhib (%)” value (kinases [16]) of the same compound?
A: Its value is −4.4%.

Q: What about the “Mean Inhib (%)” value (kinases [17]) of the same compound?
A: The value was 6.5%.

Q: What about the “Mean Inhib (%)” value (kinases [18]) of the same compound?
A: Its value is −5.4%.

Q: And the “Mean Inhib (%)” value (kinases [19])?
A: The value was 7.7%.

Q: What about the “Mean Inhib (%)” value (kinases [20]) of the same compound?
A: The value was 2.2%.

Q: And the “Mean Inhib (%)” value (kinases [21])?
A: The value was 13.3%.

Q: And the “Mean Inhib (%)” value (kinases [22]; Test Conc(μM):ATP Conc(μM) 1:300)?
A: The value was 7.4%.

Q: And the “Mean Inhib (%)” value (kinases [23])?
A: The value was −3.2%.

Q: What about the “Mean Inhib (%)” value (kinases [24]) of the same compound?
A: Its value is −0.3%.

Q: What about the “Mean Inhib (%)” value (kinases [25]) of the same compound?
A: The value was 3.9%.

Q: And the “Mean Inhib (%)” value (kinases [26])?
A: Its value is 4.6%.

Q: And the “Mean Inhib (%)” value (kinases [27])?
A: Its value is −7.6%.

Q: What does the source list for `Cc1cc(Oc2ccnc(Nc3ccc(S(N)(=O)=O)cc3)c2)c(-c2ccccn2)nc1C` [compound 65]?
A: Mean Inhib (%) (kinases [1]): 107.0%; Mean Inhib (%) (kinases [2]): 85.2%; Mean Inhib (%) (kinases [3]): 39.7%; Mean Inhib (%) (kinases [4]): 56.6%; Mean Inhib (%) (kinases [5]): 3.9%; Mean Inhib (%) (kinases [6]): 3.8%; Mean Inhib (%) (kinases [7]; [28]): 10.6%; Mean Inhib (%) (kinases [7]; [29]): 3.0%; Mean Inhib (%) (kinases [7]; [30]): 4.9%; Mean Inhib (%) (kinases [7]; [31]): 5.0%; Mean Inhib (%) (kinases [8]): 1.1%; Mean Inhib (%) (kinases [9]): −2.0%; Mean Inhib (%) (kinases [10]): 2.0%; Mean Inhib (%) (kinases [11]; [32]): 12.1%; Mean Inhib (%) (kinases [11]; [33]): 5.2%; Mean Inhib (%) (kinases [12]): −8.6%; Mean Inhib (%) (kinases [13]): 9.1%; Mean Inhib (%) (kinases [14]): 4.9%; Mean Inhib (%) (kinases [15]): 11.5%; Mean Inhib (%) (kinases [16]): −7.9%; Mean Inhib (%) (kinases [17]): 11.3%; Mean Inhib (%) (kinases [18]): −1.8%; Mean Inhib (%) (kinases [19]): 14.0%; Mean Inhib (%) (kinases [20]): 4.7%; Mean Inhib (%) (kinases [21]): 4.7%; Mean Inhib (%) (kinases [22]; Test Conc(μM):ATP Conc(μM) 0.25): −7.8%; Mean Inhib (%) (kinases [23]): −0.8%; Mean Inhib (%) (kinases [24]): 3.7%; Mean Inhib (%) (kinases [25]): 4.7%; Mean Inhib (%) (kinases [26]): −1.2%; Mean Inhib (%) (kinases [27]): 4.9%
